Measured values published in patent US8822432B2, “Equol production accelerating composition” (Unitika Ltd., priority 2006, dated 2014).

Test system: equol production in the intestines
Experiment: Equol production accelerating effect in rats: equol concentration in blood plasma after 5 weeks of sample-mixed feed
Type: in vivo, SD rats
Conditions: week 5
From the text: Calcium lactobionate (manufactured by Sigma Aldrich) was mixed with a rat powder feed (CRF-1, manufactured by Oriental Yeast Co., Ltd.) to a concentration of 0, 0.5 or 3.0% by weight. Also, as comparative controls, a 1.5% by weight difructose-dianhydride III (DFA-III) (manufactured by Wako Pure Chemical Industries, Ltd)-mixed powder feed and a 1.5% by weight fructo-oligosaccharide (FOS) (manufactured by Wako Pure Chemical Industries, Ltd)-mixed powder feed were used.
Acclimatization rearing of 3 animals per group of 5-week-old SD rats (manufactured by Clea Japan, Inc.) was carried out for 1 week by allowing to freely ingest the powder feed CRF-1 and water. The time of completion of the acclimatization rearing was regarded as the […] Starting from the week 0, respective groups were allowed to freely ingest the calcium lactobionate-mixed powder feed prepared in the above. The control groups were allowed to ingest a general powder feed.
The conjugated soybean isoflavone presenting in the rat blood plasma was converted into its free state using β-glucuronidase, and then equol was measured using an LC/MS/MS system. As the instruments for analysis, HP1100 Series, Agilent Technologies, was used in the LC, and Quattro-Ultima, Micromass was used in the MS/MS. […]

O=C([O-])[C@H](O)[C@@H](O)[C@H](O[C@@H]1O[C@H](CO)[C@H](O)[C@H](O)[C@H]1O)[C@H](O)CO.O=C([O-])[C@H](O)[C@@H](O)[C@H](O[C@@H]1O[C@H](CO)[C@H](O)[C@H](O)[C@H]1O)[C@H](O)CO.[Ca+2] [calcium lactobionate, Calcium lactobionate]
equol concentration in blood plasma, times of the control group (calcium lactobionate-mixed powder feed (0.5 or 3.0% by weight), free ingestion): 2 to 3 times of the control group | equol concentration in blood plasma compared to the DFA-III and fructo-oligosaccharide (mixed powder feed): high
